Data: ChEMBL document CHEMBL5357060, “Cytotoxic Polyhydroxy-Isoprenoids from Neodidymelliopsis negundinis” (J Nat Prod, 2024)
In brackets after ≈: the same amount, converted by molar mass.

How the values were obtained:
Staphylococcus aureus [1] = assay: Antibiofilm activity against Staphylococcus aureus DSM 1104 assessed as increase in biofilm inhibition at 250 ug/ml incubated for 24 hrs by crystal violet staining based plate reader analysis relative to control; type: functional; set-up: scale not given: the % may be the effect or the level left; details: dose 250 µg/ml
A-431 = assay: Antiproliferative activity against human A-431 cells assessed as reduction in cell growth incubated for 5 days by MTT assay; type: functional, cell-based; details: A-431, 120 h
MCF7 = assay: Antiproliferative activity against human MCF7 cells assessed as reduction in cell growth incubated for 5 days by MTT assay; type: functional, cell-based; details: MCF7, 120 h
Candida albicans [2] = assay: Antibiofilm activity against Candida albicans DSM 11225 assessed as increase in biofilm inhibition at 125 microg/ml incubated for 24 hrs by crystal violet staining based plate reader analysis relative to control; type: functional; set-up: scale not given: the % may be the effect or the level left; details: dose 125 µg/ml
A549 = assay: Antiproliferative activity against human A549 cells assessed as reduction in cell growth incubated for 5 days by MTT assay; type: functional, cell-based; details: A549, 120 h
PC-3 = assay: Antiproliferative activity against human PC-3 cells assessed as reduction in cell growth incubated for 5 days by MTT assay; type: functional, cell-based; details: PC-3, 120 h
Bacillus subtilis = assay: Antibacterial activity against Bacillus subtilis DSM 10 incubated overnight by serial dilution assay; type: functional
KB 3-1 = assay: Antiproliferative activity against human KB-3-1 cells assessed as reduction in cell growth incubated for 5 days by MTT assay; type: functional, cell-based; details: KB 3-1, 120 h
[3] = Cytotoxicity against mouse L929 cells assessed as reduction in cell viability incubated for 5 days by MTT assay; type: toxicity, cell-based
Staphylococcus aureus [4] = assay: Antibacterial activity against Staphylococcus aureus DSM 346 incubated overnight by serial dilution assay; type: functional
Candida albicans [5] = assay: Antibiofilm activity against Candida albicans DSM 11225 assessed as increase in biofilm inhibition at 250 ug/ml incubated for 24 hrs by crystal violet staining based plate reader analysis relative to control; type: functional; set-up: scale not given: the % may be the effect or the level left; details: dose 250 µg/ml
SK-OV-3 = assay: Antiproliferative activity against human SK-OV-3 cells assessed as reduction in cell growth incubated for 5 days by MTT assay; type: functional, cell-based; details: SK-OV-3, 120 h

C/C(=C\CC/C(C)=C/CO[C@@H]1O[C@H](CO)[C@@H](O)[C@H](O)[C@@H]1O)CC/C=C(\C)CCCC(C)(O)CCCC(C)(O)CCCC(C)(O)CCCC(C)(O)CCCC(C)(O)CCC(O)C(C)(C)O (some centres not stated)
Activity (Staphylococcus aureus [1]): 85% | IC50 (A-431): 4.8 µM | IC50 (MCF7): 4.8 µM | Activity (Candida albicans [2]): 66% | IC50 (A549): 4.8 µM | IC50 (PC-3): 4.8 µM | MIC (Bacillus subtilis): 16.6 µg/mL (≈ 18.1 µM) | IC50 (KB 3-1): 8.3 µM | IC50 at 5 days [3]: 8.1 µM | MIC (Staphylococcus aureus [4]): 33.3 µg/mL (≈ 36.3 µM) | Activity (Candida albicans [5]): 71% | IC50 (SK-OV-3): 4.8 µM
